Measured values: EP1479385B1, “Use of cyclooxygenase-2 inhibitors in the treatment and prevention of neoplasia” (G.D. Searle LLC, priority 1996, dated 1998)

What was measured:
[1] = tested on: Lewis Lung carcinoma cells; assay: Combination therapy in Lewis Lung carcinoma model (tumor volume); type: in vivo, C57BL/6 mice; conditions: CTX 50 mg/kg injected on days 5, 7 and 9 after implantation
Procedure: Lewis Lung carcinoma cells (2.5 x 10^6 cells) prepared from a brei carried in C57BL/6 mice were injected sub-cutaneously into the hind legs of mice.

[2] = tested on: LNCaP; assay: Human prostate cancer LNCaP tumors in nude mice; type: in vivo; conditions: dose equivalent to 6 mg/kg/day in the drinking water
Text: (§1) Two human prostate cancer cell lines (PC-3 and LNCaP) were obtained (ATCC) to determine the efficacy of cyclooxygenase-2 inhibitors to inhibit tumor growth in a therapeutic model. In addition, the LNCaP cell line secretes prostate serum antigen (PSA) when grown in nude mice.
PSA level was reduced to approximately 50% as judged by western blotting.

[3] = tested on: PC-3 cells; assay: Human prostate cancer PC-3 tumors in nude mice; type: in vivo; conditions: 20 mg/kg/day in water
Procedure: as §1
PC-3 cells (10^6 cells/0.2 ml of 30% matrigel) in RPMI 1640 medium was injected on the back of nude mice. […] After 45 days, PGE2 and TXB2 were measured.

[4] = tested on: Lewis lung carcinomas; assay: Murine Lewis lung carcinoma model (tumor volume); type: in vivo, C57BL/6 mice; conditions: day 32 after cancer cell injection, vs control group
Procedure: Lewis lung carcinomas were implanted sub-cutaneously into the foot pad of male C57BL/6 mice. The mice were subsequently treated with 4-[5-(4-chlorophenyl)-3-(difluoromethyl)-1H-pyrazol-1-yl)benzenesulfonamide. The drug was supplied in the drinking water at 6 mg/kg/day. […] The drug was supplied in the drinking water at the maximum tolerated dose of […]. A total of 10 mice/compound were tested. Tumor volume was determined twice a week using a plethysmometer. The % inhibition value is calculated by calculating the difference in tumor size compared with the control group.

For `O=P1(N(CCCl)CCCl)NCCCO1` (centres unmarked) [CTX, Cyclophosphamide], the “Tumor Volume (Day 22) % Inhibition” value [1] was 57%.

`NS(=O)(=O)c1ccc(-n2nc(C(F)F)cc2-c2ccc(Cl)cc2)cc1` [COX-2 inhibitor, 4-[5-(4-chlorophenyl)-3-(difluoromethyl)-1H-pyrazol-1-yl]benzenesulfonamide] was tested, and the “inhibited the growth of the tumor” value ([2]; day 58) was 55%, the “PSA level was reduced to” value ([2]; judged by western blotting) was “approximately 50%” and the inhibited tumor growth ([3]; administered from day 28, after 45 days) was 55%. The PGE2 levels reduced ([3]; measured after 45 days) was 80-90%, the TXB2 levels reduced ([3]; measured after 45 days) was 80-90% and the “Tumor Volume (Day 32) % Inhibition” value ([4]; 6 mg/kg/day in the drinking water) was 70.86%.

For `COc1ccc2c(c1)c(CC(=O)O)c(C)n2C(=O)c1ccc(Cl)cc1` [Indomethacin, indomethacin, reference compound], the “Tumor Volume (Day 32) % Inhibition” value ([4]; 2 mg/kg/day (maximum tolerated dose) in the drinking water) was 62.90%.
